Results taken from patent publication US20030228308A1, “Isolated peptides which bind to HLA-Cw6 molecules and uses thereof” (priority 2002, published 2003).

Assays:
[1] = test system: autologous EBV-B cells; assay: 51Cr release lysis of peptide-incubated autologous EBV-B cells by CTL clone; type: cell-based, human; details: effector:target 10:1, chromium release after 4 hours; for lysis (chromium release): 1 μg/ml of peptide, 15 minutes
Description: A set of 16 amino acid long, MAGE-1 derived peptides were prepared, using standard solid phase methodologies.
The peptides, which overlapped by 12 residues and covered the entire MAGE-1 amino acid sequence, were incubated with autologous EBV-B cells that had been labelled with Na(^51Cr)O4. The cells were incubated for 15 minutes in the presence of 1 μg/ml of peptide, and then tested for lysis with the T cells, at effector:target ratios of 10:1. Chromium release was measured after 4 hours.
It corresponds to amino acids 230-238 of MAGE-1. The shorter peptide was tested, in the same manner as the longer ones.

[2] = test system: EBV-B cells; assay: TNF production by CTL co-cultured with fixed EBV-B cells pulsed with the shorter peptide; type: cell-based, human; details: PFA-fixed EBV-B cells pulsed with peptide; overnight co-culture with 5,000 CTLs; WEHI 164 clone 13 readout
Description: A MAGE-1 expressing tumor cell line, MZ2-MEL.43 was obtained from a patient who tested positive for HLA-Cw6 expression. These cells either were, or were not contacted with gamma interferon (100 U/ml), 48 hours before lysis studies. EBV-B cells were also used. These cells naturally produce TNF. They were fixed with PFA (1% in PBS) for 10 minutes at room temperature, washed twice with Hank's medium, and either pulsed or not with the shorter peptide.
Stimulator cells (2×10^4) were distributed in flat bottom microwells, and cocultured with 5,000 CTLs, in a total volume of 150 μl of complete IMDM, supplemented with 25 U/ml of IL-2.
TNF production was measured, following overnight co-culture, by testing for toxicity of supernatant on TNF sensitive, WEHI 164 clone 13 cells.

DGREHSAYGEPRKLLT (H. sapiens) [SEQ ID NO:1, amino acids 225-240 of MAGE-1]
lysis (chromium release) [1]: positive

HSAYGEPRKLLTQDLV (H. sapiens) [SEQ ID NO:2, amino acids 229-244 of MAGE-1]
lysis (chromium release) [1]: positive

SAYGEPRKL
EC50 ([1]; read-out: peptide concentration giving half maximal lysis): ~6 nM
TNF production by CTL [2]: did stimulate TNF production
